# Reference: ChEMBL document CHEMBL6087390, “Pyridine and Pyrimidine hybrids as privileged scaffolds in antimalarial drug discovery: A recent development” (Bioorg Med Chem Lett, 2024)
# Columns and labels:
# Plasmodium falciparum [1] = test: Antimalarial activity against Plasmodium falciparum NF54; format: functional, organism-based
# Plasmodium falciparum [2] = test: Antimalarial activity against Plasmodium falciparum Dd2 assessed as reduction in parasite growth; format: functional, organism-based
# [3] = Cytotoxicity against african green monkey Vero cells assessed as cell viability measured after 48 hrs by MTT assay; format: toxicity, cell-based, Chlorocebus sabaeus; settings: for CC50 at 48 h: chlorocebus sabaeus
# HepG2 [4] = test: Cytotoxicity against human HepG2 cells assessed as reduction in cell viability incubated for 72 hrs by MTT assay; format: functional
# Plasmodium falciparum [5] = test: Antimalarial activity against Plasmodium falciparum K1 assessed as reduction in parasite growth incubated for 48 hrs by SYBR Green I staining based analysis; format: functional, organism-based; settings: K1, 48 h
# Plasmodium falciparum [6] = test: Antimalarial activity against Plasmodium falciparum D6 assessed as reduction in parasite growth; format: functional, organism-based
# Plasmodium falciparum [7] = test: Antimalarial activity against […] Plasmodium falciparum NF54 assessed as inhibition of parasite growth incubated for 48 hrs by SYBR green dye based flow cytometry; format: functional, organism-based; settings: NF54, 48 h
# Plasmodium falciparum [8] = test: Antimalarial activity against Plasmodium falciparum K1 assessed as parasite growth inhibition; format: functional, organism-based
# Plasmodium falciparum [9] = test: Antiplasmodial activity against Plasmodium falciparum NF54 assessed as reduction in parasite growth; format: functional, organism-based
# Plasmodium falciparum [10] = test: microbe, parasite or virus in culture; settings: W2
# Description: Antimalarial activity against Plasmodium falciparum W2 assessed as reduction in parasite growth
# [11] = Cytotoxicity against African green monkey Vero cells assessed as reduction in cell growth measured after 72 hrs by MTT assay; format: toxicity, cell-based; settings: African green monkey (Chlorocebus sabaeus)
# Plasmodium falciparum [12] = test: Antiplasmodial activity against Plasmodium falciparum K1; format: functional, organism-based
# [13] = Cytotoxicity against human MRC5 cells assessed as inhibition of cell growth incubated for 72 hrs by MTT assay; format: toxicity, cell-based
# HepG2 [14] = test: Cytotoxicity against human HepG2 cells assessed as reduction in cell growth; format: functional
# Plasmodium falciparum [15] = test: Antiplasmodial activity against Plasmodium falciparum W2 assessed as reduction in parasite growth after 72 hrs by SYBR Green fluorescence assay; format: functional, organism-based; settings: W2, 72 h
# Plasmodium falciparum [16] = test: Antiplasmodial activity against multidrug resistant Plasmodium falciparum K1 assessed as reduction in parasite growth by [3H]-hypoxanthine incorporation assay; format: functional, organism-based
# HepG2 [17] = test: Cytotoxicity against human HepG2 cells assessed as reduction in cell viability measured for 48 hrs by MTT assay; format: functional
# Plasmodium falciparum [18] = test: Antiparasitic activity against Plasmodium falciparum 3D7 assessed as reduction in parasite growth; format: functional, organism-based
# HepG2 [19] = test: Cytotoxicity against human HepG2 cells assessed as reduction in cell viability measured for 48 hrs by SRB assay; format: functional
# Plasmodium falciparum [20] = test: Antimalarial activity against Plasmodium falciparum 3D7 assessed as inhibition of parasite growth incubated for 72 hrs by SYBR Green I staining based analysis; format: functional, organism-based; settings: 3D7, 72 h
# Plasmodium falciparum [21] = test: Antiplasmodial activity against Plasmodium falciparum Dd2 assessed as reduction in parasite growth measured after 72 hrs by SYBR Green 1 staining based assay; format: functional, organism-based; settings: Dd2, 72 h
# Plasmodium falciparum [22] = test: Antimalarial activity against Plasmodium falciparum 3D7 assessed as inhibition of parasite growth measured after 72 hrs by SYBR Green I staining based analysis; format: functional, organism-based; settings: 3D7, 72 h
# [23] = Cytotoxicity against human HFF cells assessed as inhibition of cell viability measured after 48 hrs by MTT assay; format: toxicity, cell-based
# Plasmodium falciparum [24] = test: microbe, parasite or virus in culture; settings: W2; remark: listed apart in the source
# Plasmodium falciparum [25] = test: microbe, parasite or virus in culture; settings: 3D7, 72 h
# Plasmodium falciparum [26] = test: Antiplasmodial activity against CQ-sensitive Plasmodium falciparum NF54; format: functional, organism-based
# Plasmodium falciparum [27] = test: Antiparasitic activity against Plasmodium falciparum; format: functional, organism-based
# Plasmodium falciparum [28] = test: microbe, parasite or virus in culture; settings: 3D7, 48 h
smiles,measurement,setting,value
Cc1nc(OCc2cn(CCNc3ccnc4cc(Cl)ccc34)nn2)nc(-c2ccccc2[N+](=O)[O-])c1C(=O)OC(C)C,IC50,Plasmodium falciparum [1],0.18 µM
same,IC50,Plasmodium falciparum [2],0.99 µM
same,IC50 at 48 h,[3]; African green monkey (Chlorocebus sabaeus),150 µM
CCCN(C(c1cccnc1)c1nnnn1-c1ccccc1C)C1(c2cccc(C(F)(F)F)c2)CC1 (stereo unspecified),CC50,HepG2 [4],10 µM
CC(C)=CCC1=C(O)C(=O)c2ccccc2C1=O [LAPACHOL],CC50 at 48 h,[3],> 4130 µM
COC(=O)C1=C(Cn2cc(CCOc3cc(C(F)(F)F)nc4c(C(F)(F)F)cccc34)nn2)NC(=O)NC1c1ccc(F)cc1 (stereo unspecified),IC50,Plasmodium falciparum [5],> 5 µM
CC(C)=CCC1=C(OCc2cn(-c3cccnc3)nn2)C(=O)c2ccccc2C1=O,CC50 at 48 h,[3],1030 µM
Cc1cc(N(CCNc2ccnc3cc(Cl)ccc23)Cc2ccccn2)nc(N2CCN(C)CC2)n1,IC50,Plasmodium falciparum [6],0.02 µM
COC(=O)C1=C(Cn2cc(COc3cc(C(F)(F)F)nc4c(C(F)(F)F)cccc34)nn2)NC(=O)NC1c1ccc(F)cc1 (stereo unspecified),IC50,Plasmodium falciparum [5],> 10 µM
CC1(C)c2nc(-c3ccc(F)cc3)c(Br)n2CCN1C(=O)Cn1cc(-c2ccnc(-c3ccccn3)c2)nn1,IC50,Plasmodium falciparum [7],6.8 µM
same,IC50,Plasmodium falciparum [8],3.9 µM
COc1ccc(-c2cc(-c3ccc(OC)cc3)nc(N3CCN(c4ccnc5cc(Cl)ccc45)CC3)n2)cc1,IC50,Plasmodium falciparum [9],7.69 µM
Cc1ccccc1-n1nnnc1C(c1cccnc1)N(Cc1cccc(C(F)(F)F)c1)C1CC1 (stereo unspecified),CC50,HepG2 [4],15 µM
Cc1cc(N2CCN(C)CC2)nc(N(CCCNc2ccnc3cc(Cl)ccc23)Cc2cccs2)n1,IC50,Plasmodium falciparum [10],0.01 µM
same,IC50,Plasmodium falciparum [6],0.03 µM
FC(F)(F)c1cc(Nc2ncccn2)c2cccc(C(F)(F)F)c2n1,IC50 at 72 h,[11],> 559 µM
O=c1n(-c2cccc(Cl)c2)nc2c(S(=O)(=O)N3CCCCC3)cccn12,IC50,Plasmodium falciparum [12],2.24 µM
same,IC50 at 72 h,[13],> 64 µM
CC(C)=CCC1=C(OCc2cn(C3CC(CO)OC3n3cc(C)c(=O)[nH]c3=O)nn2)C(=O)c2ccccc2C1=O (stereo unspecified),CC50,HepG2 [14],60.7 µM
COc1ccc(NC(=O)C(c2ccc(C(F)(F)F)cc2)N2CCN(c3ncnc4sc5c(c34)CCCC5)CC2)cc1 (stereo unspecified),IC50,Plasmodium falciparum [15],0.05 µM
Cc1ccccc1N(C)C(=O)C(c1cncnc1)N(Cc1cccc(C(F)(F)F)c1)C1CC1 (stereo unspecified),EC50,Plasmodium falciparum [16],0.79 µM
same,CC50,HepG2 [17],> 30 µM
same,EC50,Plasmodium falciparum [18],0.4 µM
Cc1ncc(C(C(=O)N(C)c2ccccc2C)N(Cc2cccc(C(F)(F)F)c2)C2CC2)cn1 (stereo unspecified),EC50,Plasmodium falciparum [16],9.8 µM
same,CC50,HepG2 [17],> 30 µM
same,EC50,Plasmodium falciparum [18],8.1 µM
Cc1cc(C)cc(N(Cc2cc(C)ccc2C)S(=O)(=O)c2cccn3c(C)nnc23)c1,IC50,Plasmodium falciparum [12],11.5 µM
same,IC50 at 72 h,[13],48.5 µM
CC(=O)N(Cc1cccc(C(F)(F)F)c1)C(c1cncnc1)c1nnnn1-c1ccccc1C (stereo unspecified),CC50,HepG2 [19],> 30 µM
same,EC50,Plasmodium falciparum [20],15 µM
same,EC50,Plasmodium falciparum [21],> 30 µM
CN(Cc1cccc(C(F)(F)F)c1F)C(c1cccnc1)c1nnnn1C1CCCCC1 (stereo unspecified),EC50,Plasmodium falciparum [22],1.7 µM
same,EC50,Plasmodium falciparum [21],2.6 µM
COC(=O)C1=C(Cn2cc(COc3cc(C(F)(F)F)nc4c(C(F)(F)F)cccc34)nn2)NC(=O)NC1c1ccc(OC)cc1 (stereo unspecified),IC50,Plasmodium falciparum [5],> 5 µM
Cc1ncc(Cn2cc(CCOC(=O)c3ccccc3)nn2)c(N)n1,IC50 at 48 h,[23],> 200 µM
O=C1CCCN1c1ccc(-n2nc3c(S(=O)(=O)N4CCOCC4)cccn3c2=O)cc1,IC50,Plasmodium falciparum [12],27.8 µM
same,IC50 at 72 h,[13],> 64 µM
Cc1ccccc1-n1nnnc1C(c1cccnc1)N(Cc1cc(C(F)(F)F)ccc1F)C1CC1 (stereo unspecified),EC50,Plasmodium falciparum [22],0.6 µM
CCN1CCN(c2cc(C)nc(N(CCCNc3ccnc4cc(Cl)ccc34)Cc3cccs3)n2)CC1,IC50,Plasmodium falciparum [10],0.01 µM
same,IC50,Plasmodium falciparum [6],0.032 µM
CC(C)=CCC1=C(OCc2cn(Cc3ccccn3)nn2)C(=O)c2ccccc2C1=O,CC50 at 48 h,[3],658 µM
CCN(CC)CCCC(C)Nc1ccnc2cc(Cl)ccc12 (stereo unspecified) [CHLOROQUINE],CC50,HepG2 [14],45.4 µM
same,IC50 at 72 h,[11],907 µM
same,CC50 at 48 h,[3],393 µM
CCN1CCN(c2nc(C)cc(N(CCNc3ccnc4cc(Cl)ccc34)Cc3ccccn3)n2)CC1,IC50,Plasmodium falciparum [10],0.09 µM
same,IC50,Plasmodium falciparum [6],0.02 µM
CCN(CC)Cc1cc(Nc2ccnc3cc(Cl)ccc23)ccc1O [AMODIAQUINE],IC50,Plasmodium falciparum [24],0.07 µM
same,IC50,Plasmodium falciparum [10],0.06 µM
CCc1nnc2ccc(S(=O)(=O)N(Cc3cccc(F)c3)c3ccc(OC)cc3)cn12,IC50 at 72 h,[13],18.2 µM
COc1ccc(NC(=O)C(c2ccc(F)c(Cl)c2)N2CCN(c3ncnc4sc5c(c34)CCCC5)CC2)cc1 (stereo unspecified),IC50,Plasmodium falciparum [15],0.12 µM
same,IC50,Plasmodium falciparum [25],1 µM
Clc1ccc2c(NCCn3cc(-c4ccccn4)nn3)ccnc2c1,IC50,Plasmodium falciparum [7],0.62 µM
same,IC50,Plasmodium falciparum [8],0.95 µM
CC1(C)[C@@H](O)CC[C@]2(C)[C@H]3C(=O)CC4[C@@H]5C[C@@](C)(C(=O)OCc6cn(-c7ccc(C#N)nc7)nn6)CC[C@]5(C)CC[C@@]4(C)[C@]3(C)CC[C@@H]12 (stereo partly specified),CC50,HepG2 [14],290 µM
same,IC50,Plasmodium falciparum [26],5.5 µM
COc1ccc(C(F)(F)F)cc1CN(C1CC1)C(c1cccnc1)c1nnnn1-c1ccccc1C (stereo unspecified),CC50,HepG2 [4],16 µM
Cc1ccccc1-n1nnnc1C(c1cncnc1)N(Cc1cccc(C(F)(F)F)c1)C1CC1 (stereo unspecified),CC50,HepG2 [19],37 µM
same,EC50,Plasmodium falciparum [20],0.4 µM
Cc1ccccc1-n1nnnc1C(c1cccnc1)N(C)Cc1cc(C(F)(F)F)ccc1F (stereo unspecified),EC50,Plasmodium falciparum [22],1 µM
OC(c1cc(C(F)(F)F)nc2c(C(F)(F)F)cccc12)C1CCCCN1 (stereo unspecified) [MEFLOQUINE],IC50 at 72 h,[11],15 µM
same,IC50,Plasmodium falciparum [10],0.01 µM
Cc1ncc(C(c2nnnn2C2CC2)N(C2CC2)C2(c3cccc(C(F)(F)F)c3)CC2)cn1 (stereo unspecified),CC50,HepG2 [19],> 30 µM
same,EC50,Plasmodium falciparum [20],> 30 µM
same,EC50,Plasmodium falciparum [21],21 µM
COc1ccc(C(F)(F)F)cc1CN(C)C(c1cccnc1)c1nnnn1-c1ccccc1C (stereo unspecified),EC50,Plasmodium falciparum [22],1.2 µM
same,EC50,Plasmodium falciparum [21],1.7 µM
COc1ccc(NC(=O)C(c2ccc(OC(F)(F)F)cc2)N2CCN(c3ncnc4sc5c(c34)CCCC5)CC2)cc1 (stereo unspecified),IC50,Plasmodium falciparum [15],0.06 µM
COc1ccc(NC(=O)C(c2ccc(Cl)c(Cl)c2)N2CCN(c3ncnc4sc5c(c34)CCCC5)CC2)cc1 (stereo unspecified),IC50,Plasmodium falciparum [15],0.06 µM
Cc1nc(OCc2cn(CCCNc3ccnc4cc(Cl)ccc34)nn2)nc(-c2ccc([N+](=O)[O-])cc2)c1C(=O)OC(C)C,IC50,Plasmodium falciparum [1],0.04 µM
same,IC50,Plasmodium falciparum [2],4.5 µM
CC[C@H]1CN2CCc3cc(OC)c(OC)cc3[C@@H]2C[C@@H]1C[C@H]1NCCc2cc(OC)c(OC)cc21 [EMETINE],IC50,Plasmodium falciparum [7],0.25 µM
same,IC50,Plasmodium falciparum [8],0.65 µM
C=C[C@H]1CN2CC[C@H]1C[C@H]2[C@H](O)c1ccnc2ccc(OC)cc12 [QUININE],IC50,Plasmodium falciparum [24],0.83 µM
same,IC50,Plasmodium falciparum [27],2.71 µM
same,IC50,Plasmodium falciparum [28],0.26 µg/mL
COc1ccc(NC(=O)C(c2ccc(C)cc2)N2CCN(c3ncnc4sc5c(c34)CCCC5)CC2)cc1 (stereo unspecified),IC50,Plasmodium falciparum [15],0.26 µM
CC1(C)c2nc(-c3ccc(F)cc3)c(Br)n2CCN1C(=O)Cn1cc(-c2ccccn2)nn1,IC50,Plasmodium falciparum [7],73.1 µM
same,IC50,Plasmodium falciparum [8],88.3 µM
Cc1ncc(Cn2cc(CCOC(=O)c3cccc(Cl)c3)nn2)c(N)n1,IC50 at 48 h,[23],> 200 µM
Oc1ccc(-c2cc(-c3ccc(O)c(O)c3)nc(NCCCCNc3ccnc4cc(Cl)ccc34)n2)cc1,IC50,Plasmodium falciparum [9],1.62 µM
Clc1ccc2c(NCCn3cc(-c4ccnc(-c5ccccn5)c4)nn3)ccnc2c1,IC50,Plasmodium falciparum [7],0.09 µM
same,IC50,Plasmodium falciparum [8],0.27 µM
Cc1cccc(-n2nc3ccc(S(=O)(=O)N4CCC(C)CC4)cn3c2=O)c1,IC50,Plasmodium falciparum [12],8 µM
same,IC50 at 72 h,[13],> 64 µM
COc1ccc(-c2cc(-c3ccc(OC)c(OC)c3)nc(N3CCN(c4ccnc5cc(Cl)ccc45)CC3)n2)cc1OC,IC50,Plasmodium falciparum [9],6.17 µM
Oc1ccc(-c2cc(-c3ccc(O)cc3)nc(NCCCCNc3ccnc4cc(Cl)ccc34)n2)cc1,IC50,Plasmodium falciparum [9],0.32 µM
